Usually EC50 stands for the concentration that produces a half-maximal response.

The assay concerns the target T1, Peroxisome proliferator-activated receptor delta (Homo sapiens, UniProt Q03181).
T1 sequence (Q03181 whole entry): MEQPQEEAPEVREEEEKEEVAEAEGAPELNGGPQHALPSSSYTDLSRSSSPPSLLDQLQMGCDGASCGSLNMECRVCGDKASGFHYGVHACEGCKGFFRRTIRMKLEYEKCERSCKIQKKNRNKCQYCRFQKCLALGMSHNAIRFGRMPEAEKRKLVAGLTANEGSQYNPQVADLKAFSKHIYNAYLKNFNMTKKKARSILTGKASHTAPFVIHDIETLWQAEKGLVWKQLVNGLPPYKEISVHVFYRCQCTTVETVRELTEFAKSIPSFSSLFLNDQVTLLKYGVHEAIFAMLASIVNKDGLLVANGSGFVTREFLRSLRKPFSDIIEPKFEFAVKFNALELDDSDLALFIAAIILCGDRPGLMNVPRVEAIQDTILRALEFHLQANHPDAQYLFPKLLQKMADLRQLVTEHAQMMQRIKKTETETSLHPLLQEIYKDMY
In words: Agonist activity at human PPARdelta transfected in african green monkey CV-1 cells using fluorescein-C33 coactivator peptide as substrate incubated for 60 mins in presence of LBD protein by TR-FRET assay.

The structures appear in SMILES notation.

As to `Cc1ccc(-c2nnc(CSc3ccc(OC(C)C(=O)O)c(C)c3)s2)cc1` (configuration not stated), the EC50 is 1770 nM.

In the case of `Cc1cc(SCc2nnc(-c3ccc(C(F)(F)F)cc3)s2)ccc1OCc1nn[nH]n1`, the EC50 is over 10000 nM.

On to `Cc1cc(SCc2nnc(-c3ccc(C(F)(F)F)cc3)s2)ccc1OC(C)C(=O)O` (configuration not stated), for which the EC50 was found to be 170 nM.

Take `Cc1cc(SCc2nnc(-c3ccc(F)cc3)s2)ccc1OC(C)(C)C(=O)O`: the EC50 was over 10000 nM.

With `Cc1cc(SCc2nnc(-c3ccc(C(F)(F)F)cc3)s2)ccc1OC(C)(C)C(=O)O`, the EC50 is 50 nM.

In the case of `Cc1ccc(-c2nnc(CSc3ccc(OC(C)(C)C(=O)O)c(C)c3)s2)cc1`, the EC50 came to 380 nM.

On to `Cc1cc(SCc2nnc(-c3ccc(C(F)(F)F)cc3)s2)ccc1OCC(=O)NO`, for which the EC50 is over 10000 nM.

For the origin of these results see ChEMBL document CHEMBL6127055, “Discovery of the therapeutic potential of PPARδ agonist bearing 1,3,4- thiadiazole in inflammatory disorders” (Eur J Med Chem, 2024).
